Legend:
Type in all cases: cell-based
[1] = system: 253G1 iPS cell line derived from a human adult fibroblast; test: Flatness of cell surface in a whole visual field, reflection quantitative phase microscope (Example 1); conditions: 12.5 μM retinoic acid, cultured another 4 days
Procedure: Onto an antireflectively coated glass bottom dish with 35 mm diameter, a 253G1 iPS cell line derived from a human adult fibroblast was seeded at 10 to 20 colonies/dish and cultured on feeder using a Primate ES Medium (manufactured by ReproCELL Incorporated, a commercial name: RCHEMD001) containing 4 ng/mL human basic FGF in the final concentration. The size of one colony was around 200 μn. As the feeder cells, mouse lung fibroblasts were used. The cells were cultured until the third day after the seeding. The medium was replaced once a day. […]
The shape of the cells was observed using a reflection quantitative phase microscope. […]
The bottom surface and surface shapes of the cell were extracted as follows. By using a reflection quantitative phase microscope, three-dimensional data for the cells in a 60 μm×80 μm visual field were obtained every 0.125 μm in the horizontal direction and every 0.32 μm in the vertical direction, and from the obtained data, tomogram images were created. […] From the obtained bottom surfaces and surface shapes, the height of the surface of the cells was measured. The flatness was calculated as a standard deviation of height of the surface of the cells which was standardized with a mean value of height of the surface of the cells, and a statistical processing was done.

[2] = system: 253G1 iPS cell line derived from a human adult fibroblast; test: Flatness per ROI as standard deviation of height standardized with mean height (Example 2); conditions: ROI unit, 12.5 μM retinoic acid
Procedure: Onto an antireflectively coated glass bottom dish with 35 mm diameter, a 253G1 iPS cell line derived from a human adult fibroblast was seeded at 10 to 20 colonies/dish and cultured on feeder using a Primate ES Medium (manufactured by ReproCELL Incorporated, a commercial name: RCHEMD001) containing 4 ng/mL human basic FGF in the final concentration. The size of one colony was around 200 μn. As the feeder cells, mouse lung fibroblasts were used. The cells were cultured until the third day after the seeding. The medium was replaced once a day.
A sample of the iPS cells for differentiation, the medium of which was replaced with a Primate ES Medium containing 4 ng/mL human basic FGF and 12.5 μM retinoic acid in the final concentration on the second day after the seeding, was cultured for another 4 days. Retinoic acid is generally used as a reagent for inducing differentiation. In addition, for a control of differentiated cells, MCF7 cells were used which were human breast cancer-derived epithelial cells. The MCF7 cells were seeded at 20% cell density and cultured for 3 days to be approximately confluent using 10% FBS-containing DMEM medium. In each culture system except the MCF7 cell culture system, the medium was replaced once a day.
As to 3 colonies of the undifferentiated iPS cells and 3 colonies of the iPS cells cultured by supplementing retinoic acid, 7 to 15 visual fields around the center of each colony were analyzed. Each visual field was partitioned into six ROIs, and the bottom surfaces and surface shapes of the cells were extracted for each ROI unit to measure the height of the surface of the cells under the same condition as that of Example 1. The size of the ROI was […]×23 μm. The flatness was calculated as a standard deviation of height of the surface of the cells which was standardized with a mean value of height of the surface of the cells, and a statistical processing was done to perform Student's t-test.

[3] = system: 253G1 iPS cell line derived from a human adult fibroblast; test: Variogram analysis, MSHD standardized with mean height, per ROI (Example 3); conditions: Δr 15 μm, ROI unit
Text: The flatness may also be a value of MSHD in a predetermined horizontal distance. When a surface shape Z (x, y) is given and two points, A (x1, y1) and B (x2, y2), which are apart from each other at a Δr in the horizontal direction on the Z, are selected, the MSHD can be represented by formula (I). MSHD(Δr)=<(z(x1,y1)−z(x2,y2))^2> (I)
wherein z (x1, y1) is a height of a surface of the cell at A, z (x2, y2) is a height of a surface of the cell at B, and < > is an ensemble average. In addition, (x1, y1) and (x2, y2) are in any combination that satisfies formula (II). Δr=((x1−x2)^2+(y1−y2)^2)^1/2 (II)
Under the same condition as that of Example 2, three-dimensional data for the undifferentiated iPS cells and the iPS cells cultured by supplementing retinoic acid were obtained every 0.125 μm in the horizontal direction and every 0.32 μm in the vertical direction, and from the obtained data, tomogram images were created. From the created tomogram images, the bottom surfaces and surface shapes of the cells were extracted and a variogram analysis was performed. Specifically, a value of MSHD when the Δr was within a range of 0.25 μm to 15 μm was calculated from formula (I) as described above, and standardized with a mean value of height of the surface of the cells.
Next, a value of MSHD when the Δr was […] was calculated and standardized with a mean value of height of the surface of the cells to calculate the flatness. The result was shown as a logarithmic graph (FIG. 6). In a statistical analysis, the common logarithm of the result was calculated to perform Student's t-test (Table 3).

[4] = system: 253G1 iPS cell line derived from a human adult fibroblast; test: Slope of variogram as flatness, per ROI (Example 4); conditions: Δr 5 μm to 15 μm, ROI unit
Text: The flatness may also be a slope of a variogram in a horizontal distance between the predetermined two points. In this case, as the numerical value is smaller, the cell is flatter and less differentiated, and as the numerical value is larger, the cell is less flat and is more differentiated. The horizontal distance between the predetermined two points is not limited in particular, as long as the distance is between points enough to definitely determine the difference between undifferentiated pluripotent stem cell and differentiated cell. The relationship between a mean square height difference and a slope of a variogram can be represented by formula (III). MSHD(Δr)∝Δr^S (III)
wherein S is a slope of a graph which represents a variogram in a double logarithmic manner. It should be noted that because of the nature of a log-log graph, even when constantly multiplying the abscissa Δr or ordinate MSHD through the standardization, the graph is only translated parallelly and the slope S is constant with respect to the constantly multiplied abscissa and ordinate. In addition, as shown in the above-mentioned document of Glenn, N. et al., it is a known mathematical approach to represent a variogram by log-log graph and evaluate the statistical nature of the surface shape by slope S.
Under the same condition as that of Example 3, a variogram analysis was performed using a value of MSHD which was standardized with a mean value of height of the surface of the cells, and a slope of the variogram when the Δr was within a range of 5 μm to 15 μm was calculated as the flatness, using formula (III) as described above. Then, a statistical analysis was done to perform Student's t-test.

[5] = system: 253G1 iPS cell line derived from a human adult fibroblast; test: Flatness as MSHD per visual field unit (Example 6)
Procedure: By using images shot using each sample in Example 2 of one colony (15 visual fields) for the undifferentiated iPS cells and 2 colonies (11 and 13 visual fields, respectively) for the iPS cells cultured by supplementing retinoic acid, the height of the surface of the cells for each visual field unit was measured using a reflection quantitative phase microscope under the same condition as that of Example 2. A value of MSHD when the Δr was 5 μm was calculated and standardized with a mean value of height of the surface of the cells, then the common logarithm was taken and the flatness was calculated. A statistical analysis was done to perform Student's t-test.

CC1=C(/C=C/C(C)=C/C=C/C(C)=C/C(=O)O)C(C)(C)CCC1 [Retinoic acid, retinoic acid]
Mean value of height of the surface of the cells ([1]; 60 μm×80 μm visual field): 6.25 μm | Flatness (standard deviation of height standardized with mean height) ([1]; iPS cells, larger value = less flat): 18.9% | Flatness (standard deviation of height standardized with mean height) ([2]; colony RA-1): 0.130 | Flatness (standard deviation of height standardized with mean height) ([2]; colony RA-2): 0.107 | Flatness (standard deviation of height standardized with mean height) ([2]; colony RA-3): 0.123 | Flatness (common logarithm of MSHD standardized with mean height) ([3]; colony RA-1): −1.392 | Flatness (common logarithm of MSHD standardized with mean height) ([3]; colony RA-2): −1.517 | Flatness (common logarithm of MSHD standardized with mean height) ([3]; colony RA-3): −1.425 | Flatness (slope of variogram) ([4]; colony RA-1): 0.848 | Flatness (slope of variogram) ([4]; colony RA-2): 0.744 | Flatness (slope of variogram) ([4]; colony RA-3): 0.880 | Flatness (common logarithm of MSHD standardized with mean height) ([5]; colony RA-1, Δr 5 μm): −1.657 | Flatness (common logarithm of MSHD standardized with mean height) ([5]; colony RA-2, Δr 5 μm): −1.796
